Data reported in PubChem BioAssay AID1259407 (Chemical Carcinogenesis Research Information System (CCRIS), 2018).
Active and inactive are the calls of the source. The rule behind the calls is not given here.

Test system: CCRIS mutagenicity, Ames/micronucleus/aberration tests
Assay: CCRIS mutagenicity studies
[1] = Test System: AMES SALMONELLA TYPHIMURIUM, Strain/Indicator: TA98, Metabolic Activation: NONE, Method: STANDARD PLATE
[2] = Test System: AMES SALMONELLA TYPHIMURIUM, Strain/Indicator: TA1535, Metabolic Activation: NONE, Method: STANDARD PLATE
[3] = Test System: AMES SALMONELLA TYPHIMURIUM, Strain/Indicator: TA1537, Metabolic Activation: NONE, Method: STANDARD PLATE
[4] = Test System: AMES SALMONELLA TYPHIMURIUM, Strain/Indicator: TA100, Metabolic Activation: NONE, Method: STANDARD PLATE
[5] = Test System: AMES SALMONELLA TYPHIMURIUM, Strain/Indicator: TA98, Metabolic Activation: NONE, Method: PREINCUBATION
[6] = Test System: AMES SALMONELLA TYPHIMURIUM, Strain/Indicator: TA100, Metabolic Activation: RAT, LIVER, S-9, AROCLOR 1254, Method: PREINCUBATION
[7] = Test System: AMES SALMONELLA TYPHIMURIUM, Strain/Indicator: TA97, Metabolic Activation: NONE, Method: PREINCUBATION

For N=c1ccc2nc3ccc(N)cc3sc-2c1, the mutagenic call [1] was “active; positive”, the mutagenic call (Test System: AMES SALMONELLA TYPHIMURIUM, Strain/Indicator: TA98, Metabolic Activation: RAT, LIVER, S-9, AROCLOR 1254, Method: STANDARD PLATE) was “active; positive” and the mutagenic call [2] was “inactive; negative”. The mutagenic call (Test System: AMES SALMONELLA TYPHIMURIUM, Strain/Indicator: TA1535, Metabolic Activation: RAT, LIVER, S-9, AROCLOR 1254, Method: STANDARD PLATE) was “inactive; negative”, the mutagenic call [3] was “inactive; negative” and the mutagenic call (Test System: AMES SALMONELLA TYPHIMURIUM, Strain/Indicator: TA1537, Metabolic Activation: RAT, LIVER, S-9, AROCLOR 1254, Method: STANDARD PLATE) was “inactive; negative”. For the same compound, the mutagenic call (Test System: AMES SALMONELLA TYPHIMURIUM, Strain/Indicator: TA1538, Metabolic Activation: NONE, Method: STANDARD PLATE) was “active; positive” and the mutagenic call (Test System: AMES SALMONELLA TYPHIMURIUM, Strain/Indicator: TA1538, Metabolic Activation: RAT, LIVER, S-9, AROCLOR 1254, Method: STANDARD PLATE) was “active; positive”.
For O=C1CCCN1c1ncc([N+](=O)[O-])s1, the mutagenic call [1] was “active; positive” and the mutagenic call [4] was “inactive; negative”.
In the case of [Cl][Pt-2]([Cl])([Cl])[Cl], the mutagenic call [5] is reported as “active; positive”, the mutagenic call (Test System: AMES SALMONELLA TYPHIMURIUM, Strain/Indicator: TA98, Metabolic Activation: RAT, LIVER, S-9, AROCLOR 1254, Method: PREINCUBATION) is reported as “active; positive” and the mutagenic call (Test System: AMES SALMONELLA TYPHIMURIUM, Strain/Indicator: TA100, Metabolic Activation: NONE, Method: PREINCUBATION) is reported as “active; positive”. For the same compound, the mutagenic call [6] was “active; positive”.
With Cc1cc2c(O)cccc2c2cc3ccccc3cc12 the mutagenic call [6] was “active; positive”.
With ClCCBr the mutagenic call (End Point: IN VITRO CHROMOSOMAL ABERRATIONS, Test System: CHL CELLS, Metabolic Activation: RAT, LIVER, S-9, SODIUM PHENOBARBITAL AND 5,6-BENZOFLAVONE) was “active; positive (structural changes)”, the mutagenic call (Test System: AMES SALMONELLA TYPHIMURIUM, Strain/Indicator: TA1530, Metabolic Activation: NONE, Method: SPOT) was “active; positive” and the mutagenic call (Test System: AMES SALMONELLA TYPHIMURIUM, Strain/Indicator: TA1535, Metabolic Activation: NONE, Method: SPOT) was “active; positive”.
In the case of CCCCCCCCCCCC[N+](C)(C)COCCCCCCCCC, the mutagenic call (Test System: BACILLUS SUBTILIS, Strain/Indicator: H17/REC, Metabolic Activation: NONE, Method: STANDARD PLATE) is reported as “inactive; negative” and the mutagenic call (Test System: BACILLUS SUBTILIS, Strain/Indicator: M45, Metabolic Activation: NONE, Method: STANDARD PLATE) is reported as “inactive; negative”.
In the case of C=CCOC(=O)CCCCC, the mutagenic call [7] is reported as “inactive; negative”, the mutagenic call (Test System: AMES SALMONELLA TYPHIMURIUM, Strain/Indicator: TA97, Metabolic Activation: RAT, LIVER, S-9, AROCLOR 1254, Method: PREINCUBATION) is reported as “inactive; negative” and the mutagenic call (Test System: AMES SALMONELLA TYPHIMURIUM, Strain/Indicator: TA102, Metabolic Activation: NONE, Method: PREINCUBATION) is reported as “inactive; negative”. The mutagenic call (Test System: AMES SALMONELLA TYPHIMURIUM, Strain/Indicator: TA102, Metabolic Activation: RAT, LIVER, S-9, AROCLOR 1254, Method: PREINCUBATION) was “inactive; negative”.
With Cc1c2c(cc3ccccc13)-c1ccccc1C1NC21 (configuration not stated) the mutagenic call [7] was “active; positive”, the mutagenic call [5] was “active; positive” and the mutagenic call [1] was “active; positive”. The mutagenic call [4] was “active; positive” and the mutagenic call (Test System: AMES SALMONELLA TYPHIMURIUM, Strain/Indicator: TA104, Metabolic Activation: NONE, Method: PREINCUBATION) was “active; positive”.
With CCOC(=O)C(SP(=S)(OC)OC)c1ccccc1 (configuration not stated) the mutagenic call [1] was “inactive; negative”, the mutagenic call (Test System: AMES SALMONELLA TYPHIMURIUM, Strain/Indicator: TA98, Metabolic Activation: S-9, NADPH GENERATING SYSTEM, Method: STANDARD PLATE) was “inactive; negative” and the mutagenic call (Test System: AMES SALMONELLA TYPHIMURIUM, Strain/Indicator: TA102, Metabolic Activation: NONE, Method: STANDARD PLATE) was “inactive; negative”. The mutagenic call (Test System: AMES SALMONELLA TYPHIMURIUM, Strain/Indicator: TA102, Metabolic Activation: S-9, NADPH GENERATING SYSTEM, Method: STANDARD PLATE) was “inactive; negative”, the mutagenic call [2] was “inactive; negative” and the mutagenic call (Test System: AMES SALMONELLA TYPHIMURIUM, Strain/Indicator: TA1535, Metabolic Activation: S-9, NADPH GENERATING SYSTEM, Method: STANDARD PLATE) was “inactive; negative”. For the same compound, the mutagenic call [3] was “inactive; negative” and the mutagenic call (Test System: AMES SALMONELLA TYPHIMURIUM, Strain/Indicator: TA1537, Metabolic Activation: S-9, NADPH GENERATING SYSTEM, Method: STANDARD PLATE) was “inactive; negative”.
